# Legend:
# giant foxtail = experiment: Test B pre/postemergence giant foxtail; type: in vivo, Setaria faberii
# Summary of the method: (§1)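 Test chemicals in a non-phytotoxic solvent mixture with surfactant were sprayed preemergence onto planted seeds and postemergence onto plants 2 to 18 cm tall (1- to 4-leaf stage). After twelve to sixteen days in a greenhouse, injury was visually rated against untreated controls from 0 (no effect) to 10 (complete control).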
# purple nutsedge = experiment: Test B pre/postemergence purple nutsedge; type: in vivo, Cyperus rotundus
# Summary of the method: as §1
# sugar beet = experiment: Test B pre/postemergence sugar beet; type: in vivo, Beta vulgaris; conditions: for Plant response rating, Sugarbeets: Rate 250 g/ha
# Summary of the method: as §1
# wheat = experiment: Test B pre/postemergence wheat; type: in vivo, Triticum aestivum; conditions: for Plant response rating, Wheat: Rate 250 g/ha
# Summary of the method: as §1
# soybean = experiment: Test B pre/postemergence soybean; type: in vivo, Glycine max
# Summary of the method: as §1
# surinam grass = experiment: Test B pre/postemergence surinam grass; type: in vivo, Brachiaria decumbens
# Summary of the method: as §1
# crabgrass = experiment: Test B pre/postemergence crabgrass; type: in vivo, Digitaria sanguinalis
# Summary of the method: as §1
# cocklebur = experiment: Test B pre/postemergence cocklebur; type: in vivo, Xanthium strumarium
# Summary of the method: as §1
# pigweed = experiment: Test B pre/postemergence pigweed; type: in vivo, Amaranthus retroflexus
# Summary of the method: as §1
# bedstraw = experiment: Test B pre/postemergence bedstraw; type: in vivo, Galium aparine
# Summary of the method: as §1
# morningglory = experiment: Test B pre/postemergence morningglory; type: in vivo, Ipomoea hederacea
# Summary of the method: as §1
# velvetleaf = experiment: Test B pre/postemergence velvetleaf; type: in vivo, Abutilon theophrasti; conditions: for Plant response rating, Velvetleaf: Rate 250 g/ha
# Summary of the method: as §1
# rape = experiment: Test B pre/postemergence rape; type: in vivo, Brassica napus
# Summary of the method: as §1
# duck salad = experiment: Test B flood test duck salad; type: in vivo, Heteranthera limosa
# Summary of the method: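 Flood test on plants grown to the 2-leaf stage; treated plants kept in greenhouse twelve to sixteen days, then visually rated against controls on a 0 (no effect) to 10 (complete control) scale.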
# corn = experiment: Test B pre/postemergence corn; type: in vivo, Zea mays
# Summary of the method: as §1
# [1] = Postemergence, Rate 125 g/ha, scale of 0 to 10 where 0 is no effect and 10 is complete control
# [2] = Postemergence, Rate 250 g/ha, scale 0 to 10, 0 no effect, 10 complete control
# [3] = Preemergence, Rate 62 g/ha, scale 0 to 10 (0 no effect, 10 complete control)
# [4] = Preemergence, Rate 125 g/ha, scale 0 to 10 (0 no effect, 10 complete control)
# [5] = Preemergence, Rate 250 g/ha, scale of 0 to 10 where 0 is no effect and 10 is complete control
# [6] = Preemergence, Rate 500 g/ha, scale 0 to 10 (0 no effect, 10 complete control)
# [7] = Rate 62 g/ha, Postemergence, scale of 0 to 10 where 0 is no effect and 10 is complete control
# [8] = Rate 500 g/ha, Postemergence, scale 0 to 10, 0 no effect, 10 complete control
# [9] = Preemergence, Rate 125 g/ha, 0 is no effect, 10 is complete control
# [10] = Preemergence, scale of 0 to 10 where 0 is no effect and 10 is complete control
# [11] = Postemergence, scale 0 to 10, 0 is no effect, 10 is complete control
# [12] = Rate 250 g/ha, Postemergence, scale 0 to 10, 0 is no effect, 10 is complete control
# [13] = Postemergence, Rate 62 g/ha, scale 0 to 10, 0 is no effect, 10 is complete control
# [14] = Rate 125 g/ha, Postemergence, scale 0 to 10, 0 no effect, 10 complete control
structure (smiles),measurement,setting,value
CC(C)N(C(=O)n1oc(=O)n(C(C)(C)C)c1=O)c1ccc(Cl)cc1 [Compound 118],Giant foxtail plant response rating,giant foxtail; [1],8
same,Giant foxtail plant response rating,giant foxtail; [2],9
same,Giant foxtail plant response rating,giant foxtail; [3],9
same,"Plant response rating, Giant foxtail",giant foxtail; [4],10
same,"Plant response rating, Giant foxtail",giant foxtail; [5],10
same,Giant foxtail plant response rating,giant foxtail; [6],10
same,Giant foxtail plant response rating,giant foxtail; [7],1
same,Giant foxtail plant response rating,giant foxtail; [8],9
same,Nutsedge plant response rating,purple nutsedge; [1],0
same,Nutsedge plant response rating,purple nutsedge; [2],0
same,Nutsedge plant response rating,purple nutsedge; [3],0
same,"Plant response rating, Nutsedge",purple nutsedge; [4],0
same,"Plant response rating, Nutsedge",purple nutsedge; [5],0
same,Nutsedge plant response rating,purple nutsedge; [6],0
same,Nutsedge plant response rating,purple nutsedge; [7],0
same,Nutsedge plant response rating,purple nutsedge; [8],0
same,Sugarbeets plant response rating,sugar beet; [1],0
same,Sugarbeets plant response rating,sugar beet; [3],0
same,Sugarbeets plant response rating (0 to 10 scale),sugar beet; [9],0
same,"Plant response rating, Sugarbeets",sugar beet; [10],0
same,Sugarbeets plant response rating,sugar beet; [6],0
same,Sugarbeets plant response rating,sugar beet; [7],0
same,"Plant response rating, Sugarbeets",sugar beet; [11],0
same,Sugarbeets plant response rating,sugar beet; [8],2
same,Wheat plant response rating,wheat; [1],0
same,Wheat plant response rating,wheat; [3],0
same,Wheat plant response rating (0 to 10 scale),wheat; [9],0
same,"Plant response rating, Wheat",wheat; [10],0
same,Wheat plant response rating,wheat; [6],0
same,Wheat plant response rating,wheat; [7],0
same,"Plant response rating, Wheat",wheat; [11],0
same,Wheat plant response rating,wheat; [8],2
same,Soybean plant response rating,soybean; [1],1
same,Soybean plant response rating,soybean; [3],0
same,"Plant response rating, Soybean",soybean; [4],0
same,"Plant response rating, Soybean",soybean; [5],0
same,Soybean plant response rating,soybean; [6],0
same,Soybean plant response rating,soybean; [7],1
same,"Plant response rating, Soybean",soybean; [12],2
same,Soybean plant response rating,soybean; [8],2
same,B. signalgrass plant response rating,surinam grass; [13],0
same,B. signalgrass plant response rating,surinam grass; [2],2
same,B. signalgrass plant response rating,surinam grass; [3],0
same,"Plant response rating, B. signalgrass",surinam grass; [4],2
same,"Plant response rating, B. signalgrass",surinam grass; [5],3
same,B. signalgrass plant response rating,surinam grass; [6],10
same,B. signalgrass plant response rating,surinam grass; [14],0
same,B. signalgrass plant response rating,"surinam grass; Rate 500 g/ha, Postemergence, scale of 0 to 10 where 0 is no effect and 10 is complete control",9
same,Crabgrass plant response rating,crabgrass; [1],7
same,Crabgrass plant response rating,crabgrass; [2],7
same,Crabgrass plant response rating,crabgrass; [3],7
same,"Plant response rating, Crabgrass",crabgrass; [4],9
same,"Plant response rating, Crabgrass",crabgrass; [5],10
same,Crabgrass plant response rating,crabgrass; [6],10
same,Crabgrass plant response rating,crabgrass; [7],1
same,Crabgrass plant response rating,crabgrass; [8],9
same,Cocklebur plant response rating,cocklebur; [1],0
same,Cocklebur plant response rating,cocklebur; [2],0
same,Cocklebur plant response rating,cocklebur; [3],0
same,"Plant response rating, Cocklebur",cocklebur; [4],0
same,"Plant response rating, Cocklebur",cocklebur; [5],0
same,Cocklebur plant response rating,cocklebur; [6],0
same,Cocklebur plant response rating,cocklebur; [7],0
same,Cocklebur plant response rating,cocklebur; [8],0
same,Redroot pigweed plant response rating,pigweed; [1],0
same,Redroot pigweed plant response rating,pigweed; [3],0
same,"Plant response rating, Redroot pigweed",pigweed; [4],0
same,"Plant response rating, Redroot pigweed",pigweed; [5],2
same,Redroot pigweed plant response rating,pigweed; [6],10
same,Redroot pigweed plant response rating,pigweed; [7],0
same,"Plant response rating, Redroot pigweed",pigweed; [12],0
same,Redroot pigweed plant response rating,pigweed; [8],0
same,Bedstraw plant response rating,bedstraw; [13],0
same,Bedstraw plant response rating,bedstraw; [2],0
same,Bedstraw plant response rating,bedstraw; [3],0
same,"Plant response rating, Bedstraw",bedstraw; [4],0
same,"Plant response rating, Bedstraw",bedstraw; [5],0
same,Bedstraw plant response rating,bedstraw; [6],0
same,Bedstraw plant response rating,bedstraw; [14],0
same,Morningglory plant response rating,morningglory; [1],4
same,Morningglory plant response rating,morningglory; [2],5
same,Morningglory plant response rating,morningglory; [3],0
same,"Plant response rating, Morningglory",morningglory; [4],0
same,"Plant response rating, Morningglory",morningglory; [5],0
same,Morningglory plant response rating,morningglory; [6],0
same,Morningglory plant response rating,morningglory; [7],1
same,Morningglory plant response rating,morningglory; [8],7
same,Velvetleaf plant response rating,velvetleaf; [1],0
same,Velvetleaf plant response rating,velvetleaf; [3],0
same,Velvetleaf plant response rating (0 to 10 scale),velvetleaf; [9],0
same,"Plant response rating, Velvetleaf",velvetleaf; [10],0
same,Velvetleaf plant response rating,velvetleaf; [6],4
same,Velvetleaf plant response rating,velvetleaf; [7],0
same,"Plant response rating, Velvetleaf",velvetleaf; [11],0
same,Velvetleaf plant response rating,velvetleaf; [8],0
same,Rape plant response rating,rape; [1],0
same,Rape plant response rating,rape; [2],0
same,Rape plant response rating,rape; [3],0
same,"Plant response rating, Rape",rape; [4],0
same,"Plant response rating, Rape",rape; [5],0
same,Rape plant response rating,rape; [6],0
same,Rape plant response rating,rape; [7],0
same,Rape plant response rating,rape; [8],0
same,Ducksalad plant response rating,"duck salad; Rate 250 g/ha, headed Pre-emergence (flood test species), scale 0 to 10 (0 no effect, 10 complete control)",0
same,"Plant response rating, Ducksalad","duck salad; Rate 500 g/ha, headed Pre-emergence (flood test species), scale 0 to 10 (0 no effect, 10 complete control)",0
same,Ducksalad plant response rating,"duck salad; Rate 1000 g/ha, Pre-emergence (as headed), scale 0 to 10",0
same,Ducksalad plant response rating,"duck salad; Rate 2000 g/ha, Pre-emergence (as headed), scale 0 to 10",0
same,Corn plant response rating,corn; [1],0
same,Corn plant response rating,corn; [2],0
same,Corn plant response rating,corn; [3],0
same,"Plant response rating, Corn",corn; [4],0
same,"Plant response rating, Corn",corn; [5],0
same,Corn plant response rating,corn; [6],0
same,Corn plant response rating,corn; [7],0
same,Corn plant response rating,corn; [8],3

# Source: US6737383B1, “Herbicidal oxadiazolidines” (priority 1999, dated 2004)
